Assay: xn = mol fraction of the nth substance listed
Conditions: 101 kPa, Liquid; for speed of sound: Pulse-echo method

CCCCCCC(C)O (stereo unspecified) [2-octanol] + Clc1cccc(Cl)c1
Conditions	mass density, 303.15 K [kg/m3]	mass density, 308.15 K [kg/m3]	speed of sound, 303.15 K [m/s]	speed of sound, 308.15 K [m/s]	viscosity, 303.15 K [mPa·s]	viscosity, 308.15 K [mPa·s]
x2 = 0	–	–	–	–	5.178	4.162
x2 = 0.0694	836.24	832.14	1282.4	1264.6	4.351	3.517
x2 = 0.1166	852.87	848.59	1278.1	1260.1	3.821	3.17
x2 = 0.1823	876.71	871.91	1272.3	1254.2	3.246	2.759
x2 = 0.2395	898.21	892.9	1267.5	1249.6	2.847	2.463
x2 = 0.3143	927.45	920.82	1261.2	1243.5	2.412	2.119
x2 = 0.379	953.45	945.97	1256.1	1238.9	2.113	1.892
x2 = 0.4488	982.39	974.25	1251	1233.9	1.857	1.673
x2 = 0.5084	1007.74	999.57	1246.9	1230.2	1.679	1.512
x2 = 0.582	1040.69	1032.22	1242.3	1226	1.51	1.358
x2 = 0.6659	1079.96	1071.96	1238.3	1221.9	1.378	1.207
x2 = 0.7208	1107.42	1099.76	1236.2	1219.4	1.302	1.132
x2 = 0.7847	1141.2	1134.17	1234.6	1217.9	1.226	1.05
x2 = 0.8663	1187.75	1181.99	1234.2	1217.3	1.14	0.956
x2 = 0.9434	1236.9	1231.4	1235.6	1219.3	1.042	0.898
